Measured values from paper PMC6282443 (Journal of Enzyme Inhibition and Medicinal Chemistry, 2018).
Like-named read-outs stand apart in the source and are kept apart here.

Key:
Assay type in all cases: cell-based, human
A549 cells = experiment: cells; conditions: read-out: Anti-proliferative activity IC50, A549
HepG2 cells = experiment: MTT anti-proliferative assay, HepG2; conditions: read-out: Anti-proliferative activity IC50, HepG2
MCF-7 cells = experiment: MTT anti-proliferative assay, MCF-7; conditions: read-out: Anti-proliferative activity IC50, MCF-7
H1975 cells = conditions: H1975, MTT; for IC50: read-out: Anti-proliferative activity IC50, H1975, 72 h

CCN(CC)c1ccc(/C=N/NC(=O)Nc2cc3c(Nc4ccc(F)c(Cl)c4)ncnc3cc2O[C@H]2CCOC2)cc1 [Compound 12, (S,E)-N-(4-((3-chloro-4-fluorophenyl)amino)-7-((tetrahydrofuran-3-yl)oxy)quinazolin-6-yl)-2-(4-(diethylamino)benzylidene)hydrazine-1-carboxamide]
IC50 (A549 cells; Homo sapiens, A549, 72 h): 0.28 ± 0.12 µM
IC50 (HepG2 cells; Homo sapiens, HepG2, 72 h): 0.31 ± 0.13 µM
IC50 (MCF-7 cells; Homo sapiens, MCF7, 72 h): 0.35 ± 0.09 µM
inhibitory activity against H1975 cells (in words) (H1975 cells): moderate inhibitory activity

O=C(N/N=C/c1ncc(N2CCOCC2)s1)Nc1cc2c(Nc3ccc(F)c(Cl)c3)ncnc2cc1O[C@H]1CCOC1 [Compound 13, (S,E)-N-(4-((3-chloro-4-fluorophenyl)amino)-7-((tetrahydrofuran-3-yl)oxy)quinazolin-6-yl)-2-((5-morpholinothiazol-2-yl)methylene)hydrazine-1-carboxamide]
IC50 (A549 cells; Homo sapiens, A549, 72 h): 1.48 ± 0.19 µM
IC50 (HepG2 cells; Homo sapiens, HepG2, 72 h): 1.35 ± 0.31 µM
IC50 (MCF-7 cells; Homo sapiens, MCF7, 72 h): 1.35 ± 0.14 µM
inhibitory activity against H1975 cells (in words) (H1975 cells): moderate inhibitory activity

O=C(N/N=C/c1ccc(N2CCCC2)o1)Nc1cc2c(Nc3ccc(F)c(Cl)c3)ncnc2cc1O[C@H]1CCOC1 [Compound 15, (S,E)-N-(4-((3-chloro-4-fluorophenyl)amino)-7-((tetrahydrofuran-3-yl)oxy)quinazolin-6-yl)-2-((5-(pyrrolidin-1-yl)furan-2-yl)methylene)hydrazine-1-carboxamide]
IC50 (A549 cells; Homo sapiens, A549, 72 h): 10.5 ± 0.77 µM
IC50 (HepG2 cells; Homo sapiens, HepG2, 72 h): 8.17 ± 0.98 µM
IC50 (MCF-7 cells; Homo sapiens, MCF7, 72 h): 14 ± 0.78 µM
inhibitory activity against H1975 cells (in words) (H1975 cells): poorer cellular activity

CN(C)c1ccc(/C=N/NC(=O)Nc2cc3c(Nc4ccc(F)c(Cl)c4)ncnc3cc2O[C@H]2CCOC2)s1 [Compound 16, (S,E)-N-(4-((3-chloro-4-fluorophenyl)amino)-7-((tetrahydrofuran-3-yl)oxy)quinazolin-6-yl)-2-((5-(dimethylamino)thiophen-2-yl)methylene)hydrazine-1-carboxamide]
IC50 (A549 cells; Homo sapiens, A549, 72 h): 2.5 ± 0.36 µM
IC50 (HepG2 cells; Homo sapiens, HepG2, 72 h): 2.43 ± 0.45 µM
IC50 (MCF-7 cells; Homo sapiens, MCF7, 72 h): 3.68 ± 0.49 µM
inhibitory activity against H1975 cells (in words) (H1975 cells): poorer cellular activity

COc1cc2ncnc(Nc3ccc(F)c(Cl)c3)c2cc1NC(=O)N/N=C/c1ccc(N2CCCC2)nc1 [Compound 17, (E)-N-(4-((3-chloro-4-fluorophenyl)amino)-7-methoxyquinazolin-6-yl)-2-((6-(pyrrolidin-1-yl)pyridin-3-yl)methylene) hydrazine-1-carboxamide]
IC50 (A549 cells; A549, MTT, 72 h): 14.6 ± 1.21 µM
IC50 (HepG2 cells; HepG2, MTT, 72 h): 13.2 ± 1.31 µM
IC50 (MCF-7 cells; MCF-7, MTT, 72 h): 12.9 ± 1.12 µM
IC50 (H1975 cells): 35.3 ± 2.35 µM

COc1cc2ncnc(Nc3ccc(F)c(Cl)c3)c2cc1NC(=O)N/N=C/c1ccc(CN(C)C)cc1 [Compound 19, (E)-N-(4-((3-chloro-4-fluorophenyl)amino)-7-methoxyquinazolin-6-yl)-2-(4-((dimethylamino)methyl)benzylidene)hydrazine-1-carboxamide]
IC50 (A549 cells; Homo sapiens, A549, 72 h): 7.99 ± 0.82 µM
IC50 (HepG2 cells; Homo sapiens, HepG2, 72 h): 9.89 ± 0.96 µM
IC50 (MCF-7 cells; Homo sapiens, MCF7, 72 h): 3.8 ± 0.22 µM
inhibitory activity against H1975 cells (in words) (H1975 cells): moderate inhibitory activity

CCN(CC)Cc1ccc(/C=N/NC(=O)Nc2cc3c(Nc4ccc(F)c(Cl)c4)ncnc3cc2OC)cc1 [Compound 20, (E)-N-(4-((3-chloro-4-fluorophenyl)amino)-7-methoxyquinazolin-6-yl)-2-(4-((diethylamino)methyl)benzylidene)hydrazine-1-carboxamide]
IC50 (A549 cells; Homo sapiens, A549, 72 h): 8.71 ± 0.54 µM
IC50 (HepG2 cells; Homo sapiens, HepG2, 72 h): 9.49 ± 0.47 µM
IC50 (MCF-7 cells; Homo sapiens, MCF7, 72 h): 4.14 ± 0.57 µM
inhibitory activity against H1975 cells (in words) (H1975 cells): poorer cellular activity

COc1cc2ncnc(Nc3ccc(F)c(Cl)c3)c2cc1NC(=O)N/N=C/c1ccc(CN2CCCC2)cc1 [Compound 21, (E)-N-(4-((3-chloro-4-fluorophenyl)amino)-7-methoxyquinazolin-6-yl)-2-(4-(pyrrolidin-1-ylmethyl)benzylidene)hydrazine-1-carboxamide]
IC50 (A549 cells; Homo sapiens, A549, 72 h): 17.8 ± 1.22 µM
IC50 (HepG2 cells; Homo sapiens, HepG2, 72 h): 21.3 ± 1.47 µM
IC50 (MCF-7 cells; Homo sapiens, MCF7, 72 h): 8.9 ± 0.48 µM
inhibitory activity against H1975 cells (in words) (H1975 cells): moderate inhibitory activity

COc1cc2ncnc(Nc3ccc(F)c(Cl)c3)c2cc1NC(=O)N/N=C/c1ccc(CN2CCN(C)CC2)cc1 [Compound 24, (E)-N-(4-((3-chloro-4-fluorophenyl)amino)-7-methoxyquinazolin-6-yl)-2-(4-((4-methylpiperazin-1-yl)methyl)benzylidene)hydrazine-1-carboxamide]
IC50 (A549 cells; Homo sapiens, A549, 72 h): 4.32 ± 0.61 µM
IC50 (HepG2 cells; Homo sapiens, HepG2, 72 h): 2.86 ± 0.13 µM
IC50 (MCF-7 cells; Homo sapiens, MCF7, 72 h): 3.12 ± 0.38 µM
inhibitory activity against H1975 cells (in words) (H1975 cells): moderate inhibitory activity

CN(C)Cc1ccc(/C=N/NC(=O)Nc2cc3c(Nc4ccc(F)c(Cl)c4)ncnc3cc2O[C@H]2CCOC2)cc1 [Compound 25, (S,E)-N-(4-((3-chloro-4-fluorophenyl)amino)-7-((tetrahydrofuran-3-yl)oxy)quinazolin-6-yl)-2-(4-((dimethylamino)methyl)benzylidene)hydrazine-1-carboxamide]
IC50 (A549 cells; Homo sapiens, A549, 72 h): 4.13 ± 0.54 µM
IC50 (HepG2 cells; Homo sapiens, HepG2, 72 h): 3.76 ± 0.21 µM
IC50 (MCF-7 cells; Homo sapiens, MCF7, 72 h): 4.41 ± 0.28 µM
inhibitory activity against H1975 cells (in words) (H1975 cells): poorer cellular activity

COc1cc2ncnc(Nc3ccc(F)c(Cl)c3)c2cc1NC(=O)N/N=C/c1ccc(OCCN(C)C)cc1 [Compound 31, (E)-N-(4-((3-chloro-4-fluoropheny)amino)-7-methoxyquinazolin-6-yl)-2-(4-(2-(dimethylamino)ethoxy)benzylidene)hydrazine-1-carboxamide]
IC50 (A549 cells; A549, MTT, 72 h): 40.1 ± 4.03 µM
IC50 (HepG2 cells; HepG2, MTT, 72 h): 36.3 ± 2.57 µM
IC50 (MCF-7 cells; MCF-7, MTT, 72 h): 37.2 ± 2.89 µM
IC50 (H1975 cells): 45.3 ± 3.34 µM

CCN(CC)CCOc1ccc(/C=N/NC(=O)Nc2cc3c(Nc4ccc(F)c(Cl)c4)ncnc3cc2OC)cc1 [Compound 32, (E)-N-(4-((3-chloro-4-fluoropheny)amino)-7-methoxyquinazolin-6-yl)-2-(4-(2-(diethylamino)ethoxy)benzylidene)hydrazine-1-carboxamide]
IC50 (A549 cells; A549, MTT, 72 h): 8.62 ± 1.13 µM
IC50 (HepG2 cells; HepG2, MTT, 72 h): 13.2 ± 1.03 µM
IC50 (MCF-7 cells; MCF-7, MTT, 72 h): 12.5 ± 1.24 µM
inhibitory activity against H1975 cells (in words) (H1975 cells): poorer cellular activity
IC50 (H1975 cells): 32.6 ± 3.45 µM

COc1cc2ncnc(Nc3ccc(F)c(Cl)c3)c2cc1NC(=O)N/N=C/c1ccc(OCCN2CCCCC2)cc1 [Compound 34, (E)-N-(4-((3-chloro-4-fluoropheny)amino)-7-methoxyquinazolin-6-yl)-2-(4-(2-(piperidin-1-yl)ethoxy)benzylidene)hydrazine-1-carboxamide]
IC50 (A549 cells; A549, MTT, 72 h): 10.8 ± 1.43 µM
IC50 (HepG2 cells; HepG2, MTT, 72 h): 12.7 ± 1.25 µM
IC50 (MCF-7 cells; MCF-7, MTT, 72 h): 9.21 ± 1.16 µM
inhibitory activity against H1975 cells (in words) (H1975 cells): poorer cellular activity
IC50 (H1975 cells): 61.6 ± 5.67 µM

COc1cc2ncnc(Nc3ccc(Cl)c(F)c3)c2cc1NC(=O)N/N=C/c1ccc(OCCN2CCOCC2)cc1 [Compound 35, (E)-N-(4-((4-chloro-3-fluorophenyl)amino)-7-methoxyquinazolin-6-yl)-2-(4-(2-morpholinoethoxy)benzylidene) hydrazine-1-carboxamide]
IC50 (A549 cells; A549, MTT, 72 h): 19.5 ± 1.35 µM
IC50 (HepG2 cells; HepG2, MTT, 72 h): 16.5 ± 1.42 µM
IC50 (MCF-7 cells; MCF-7, MTT, 72 h): 21.8 ± 1.34 µM
IC50 (H1975 cells): 25.2 ± 1.35 µM

COc1cc2ncnc(Nc3ccc(F)c(Cl)c3)c2cc1NC(=O)N/N=C/c1ccc(OCCN2CCN(C)CC2)cc1 [Compound 36, (E)-N-(4-((3-chloro-4-fluoropheny)amino)-7-methoxyquinazolin-6-yl)-2-(4-(2-(4-methylpiperazin-1-yl)ethoxy)benzylidene)hydrazine-1-carboxamide]
IC50 (A549 cells; A549, MTT, 72 h): 11.4 ± 1.07 µM
IC50 (HepG2 cells; HepG2, MTT, 72 h): 10.2 ± 1.09 µM
IC50 (MCF-7 cells; MCF-7, MTT, 72 h): 6.2 ± 0.81 µM
inhibitory activity against H1975 cells (in words) (H1975 cells): poorer cellular activity
IC50 (H1975 cells): 24.7 ± 1.86 µM

CN(C)CCOc1ccc(/C=N/NC(=O)Nc2cc3c(Nc4ccc(F)c(Cl)c4)ncnc3cc2O[C@H]2CCOC2)cc1 [Compound 37, (S,E)-N-(4-((3-chloro-4-fluoropheny)amino)-7-((tetrahydrofuran-3-yl)oxy)quinazolin-6-yl)-2-(4-(2-(dimethylamino)ethoxy)benzylidene)hydrazine-1-carboxamide]
IC50 (A549 cells; A549, MTT, 72 h): 14.7 ± 1.35 µM
IC50 (HepG2 cells; HepG2, MTT, 72 h): 8.2 ± 0.81 µM
IC50 (MCF-7 cells; MCF-7, MTT, 72 h): 11.7 ± 1.34 µM
inhibitory activity against H1975 cells (in words) (H1975 cells): moderate inhibitory activity
IC50 (H1975 cells): 10.2 ± 1.12 µM

O=C(N/N=C/c1ccc(OCCN2CCCC2)cc1)Nc1cc2c(Nc3ccc(F)c(Cl)c3)ncnc2cc1O[C@H]1CCOC1 [Compound 39, (S,E)-N-(4-((3-chloro-4-fluoropheny)amino)-7-((tetrahydrofuran-3-yl)oxy)quinazolin-6-yl)-2-(4-(2-(pyrrolidin-1-yl)ethoxy)benzylidene)hydrazine-1-carboxamide]
IC50 (A549 cells; A549, MTT, 72 h): 63.9 ± 5.35 µM
IC50 (HepG2 cells; HepG2, MTT, 72 h): 67.3 ± 6.24 µM
IC50 (MCF-7 cells; MCF-7, MTT, 72 h): 64.8 ± 5.35 µM
IC50 (H1975 cells): > 100 µM

O=C(N/N=C/c1ccc(OCCN2CCCCC2)cc1)Nc1cc2c(Nc3ccc(F)c(Cl)c3)ncnc2cc1O[C@H]1CCOC1 [Compound 40, (S,E)-N-(4-((3-chloro-4-fluoropheny)amino)-7-((tetrahydrofuran-3-yl)oxy)quinazolin-6-yl)-2-(4-(2-(piperidin-1-yl)ethoxy)benzylidene)hydrazine-1-carboxamide]
IC50 (A549 cells; A549, MTT, 72 h): 24.2 ± 1.24 µM
IC50 (HepG2 cells; HepG2, MTT, 72 h): 17.4 ± 1.24 µM
IC50 (MCF-7 cells; MCF-7, MTT, 72 h): 24.2 ± 1.23 µM
IC50 (H1975 cells): 35.3 ± 2.35 µM

O=C(N/N=C/c1ccc(OCCN2CCOCC2)cc1)Nc1cc2c(Nc3ccc(F)c(Cl)c3)ncnc2cc1O[C@H]1CCOC1 [Compound 41, (S,E)-N-(4-((3-chloro-4-fluoropheny)amino)-7-((tetrahydrofuran-3-yl)oxy)quinazolin-6-yl)-2-(4-(2-morpholinoethoxy)benzylidene)hydrazine-1-carboxamide]
IC50 (A549 cells; A549, MTT, 72 h): 37.8 ± 2.54 µM
IC50 (HepG2 cells; HepG2, MTT, 72 h): 40.2 ± 3.04 µM
IC50 (MCF-7 cells; MCF-7, MTT, 72 h): 28.8 ± 1.29 µM
IC50 (H1975 cells): 25.5 ± 1.44 µM

COc1cc2ncnc(Nc3ccc(F)c(Cl)c3)c2cc1NC(=O)N/N=C/c1ccc(OCCCN2CCCCC2)cc1 [Compound 46, (E)-N-(4-((3-chloro-4-fluoropheny)amino)-7-methoxyquinazolin-6-yl)-2-(4-(3-(piperidin-1-yl)propoxy)benzylidene)hydrazine-1-carboxamide]
IC50 (A549 cells; A549, MTT, 72 h): 4.01 ± 0.56 µM
IC50 (HepG2 cells; HepG2, MTT, 72 h): 9.58 ± 0.94 µM
IC50 (MCF-7 cells; MCF-7, MTT, 72 h): 6.85 ± 0.65 µM
IC50 (H1975 cells): 3.1 ± 0.49 µM
